#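 Cultured in 96-well plates, cells were exposed to test compound for 48 hours across five concentrations. GI50 = concentration required for 50% inhibition of growth. TGI: concentration producing complete growth inhibition.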
# Assays:
# Test in all cases: growth of human tumour cells (NCI), 48 h
# [1] = test system: 786-0 renal
# [2] = test system: DU-145 prostate
# [3] = test system: HCC-2998 colon
# [4] = test system: HCT-116 colon
# [5] = test system: LOX IMVI melanoma
# [6] = test system: MALME-3M melanoma
# [7] = test system: MDA-MB-231 breast
# [8] = test system: NCI-H460 lung
# [9] = test system: NCI-H522 lung
# [10] = test system: OVCAR-8 ovarian
# [11] = test system: SF-295 CNS
# [12] = test system: SF-539 CNS
# [13] = test system: SK-MEL-2 melanoma
# [14] = test system: SK-MEL-28 melanoma
# [15] = test system: SN12C renal
# [16] = test system: SNB-19 CNS
# [17] = test system: SNB-75 CNS
# [18] = test system: SW-620 colon
# [19] = test system: U251 CNS
SMILES,TGI [1] [µM],TGI [2] [µM],TGI [3] [µM],TGI [4] [µM],TGI [5] [µM],TGI [6] [µM],TGI [7] [µM],TGI [8] [µM],TGI [9] [µM],TGI [10] [µM],TGI [11] [µM],TGI [12] [µM],TGI [13] [µM],TGI [14] [µM],TGI [15] [µM],TGI [16] [µM],TGI [17] [µM],TGI [18] [µM],GI50 [19] [µM],TGI [19] [µM]
COc1cc(C2c3cc4c(cc3[C@H](OCCN(C)C)[C@@H]3COC(=O)C23)OCO4)cc(OC)c1O (stereo not given in full),0.439,0.549,2.55,7.18,0.803,1.73,39.3,0.766,2.35,2.92,0.583,0.449,2.44,4.51,0.598,5.98,3.79,3.4,0.0409,0.898
CCOC(=O)C(=C(SC)SC)c1nn2c(=O)cc(C)nc2s1,36.2,30.1,34.9,30.5,29.5,32.3,47.8,60.7,41.7,43.9,> 100,32.7,37.5,31.3,> 100,86,89.6,41.3,,58.1
C=C1CC[C@@]2(OC1)OC1C[C@H]3[C@@H]4CC=C5C[C@@H](O)CC(OC6OCC(OC(=O)[C@@H](O)[C@@H](C)CC)C(OC(C)=O)C6OC6OC(C)C(O)C(O)C6O)[C@]5(C)[C@H]4CC[C@]3(C)C1[C@@H]2C (stereo not given in full),3.27,4.35,2.96,3.06,3.67,> 10,3.23,3.32,3.27,4.31,3.27,5.21,3.11,4.58,4,3.87,4.84,4.51,,3.21
COC(=O)CCC(=O)NC1c2cccc3cccc(c23)Cn2c(=O)n(C)c(=O)n21 (stereo not given),> 100,> 100,> 100,> 100,> 100,> 100,> 100,> 100,> 100,> 100,> 100,> 100,> 100,> 100,> 100,> 100,> 100,> 100,,> 100
COc1ccccc1N1C(=O)/C(=C\c2cccc(Oc3ccccc3)c2)SC1c1ccccc1 (stereo not given),> 100,> 100,> 100,> 100,> 100,> 100,> 100,> 100,> 100,> 100,> 100,> 100,> 100,> 100,> 100,> 100,> 100,71,,> 100
Cc1cccc2c(N)c3cccc(C(=O)NCCCNCCN)c3nc12,11.4,17.2,19.6,25.9,25.2,19.9,12.9,11.6,0.0786,23.6,20.9,9.93,34,29.4,2.25,15,8.1,33.3,,9.31
O=P(c1ccccc1)(c1ccccc1)C(NCc1ccccc1)c1ccc(F)cc1 (stereo not given),34.8,45.2,29.6,25.7,28,34.6,26.1,26.7,25.2,40.6,29.4,36.2,29,28.9,36.6,33.5,48.3,35.5,,30
COC1(OC)C2(Cl)CCC1(Cl)C(OC(C)=O)C2 (stereo not given),> 100,> 100,> 100,> 100,> 100,> 100,> 100,> 100,> 100,> 100,> 100,> 100,> 100,> 100,> 100,> 100,> 100,> 100,,> 100
O=C(CNc1ccc(Cl)cc1)Nn1c(-c2ccccc2)nc2ccccc2c1=O,10.2,28.5,23.5,4.65,4.12,13.7,13.6,23.4,11.5,5.53,29.8,14.9,30.4,19.8,20.9,24.5,24.1,11.9,,5.02
CC[C@@H]1/C=C/C=C/C[C@H](C)[C@@H](O)[C@](C)(O)C(=O)[C@H](C)[C@@H](O)[C@H](C)C(=O)[C@H](C)[C@@H](O)[C@H](C)/C=C/C(=O)O[C@H]2[C@@H](C)[C@@H](CC1)O[C@]1(O[C@H](CC(C)O)[C@H](C)CC1=O)[C@@H]2C (stereo not given in full),12.1,8.78,8,6.26,9.2,14.2,8.47,6.85,6.59,> 25,0.114,8.75,9.61,> 19.6,8.72,> 25,> 25,> 25,,11.9
CCCN(CCCCC(NC(C)=O)C(=O)NCc1ccccc1)C(=O)N(CCCl)N=O (stereo not given),> 89.4,> 100,> 100,> 100,> 100,> 100,> 100,> 56.2,> 100,> 100,> 100,41.1,> 100,> 100,> 100,> 100,90.8,> 100,,> 74.9
CCOC(=O)NC(Nc1ccc(S(=O)(=O)Nc2ncccn2)cc1)(C(=O)OCC)C(F)(F)F (stereo not given),> 100,> 100,> 100,> 100,> 100,> 100,> 100,> 100,> 100,> 100,> 100,> 100,> 100,> 100,> 100,> 100,> 100,> 100,,> 100
CCCN=C(NC(=O)c1ccc(Cl)cc1)SC,> 100,> 100,> 100,> 100,> 100,> 100,> 100,> 100,> 100,> 100,> 100,> 100,> 100,> 100,> 100,> 100,97.2,> 100,,> 100
CCOC(=O)/C(O)=C(/C=NC(=S)c1ccncc1)C(=O)OCC,> 100,> 100,> 100,> 100,> 100,> 100,> 100,> 100,> 100,> 100,> 100,> 100,> 100,> 100,> 100,97,> 100,> 100,,> 100
Cc1[nH]c(=O)[nH]c(=S)c1C(=O)NC(C)(CO)CO,> 100,> 100,> 100,> 100,> 100,> 100,> 100,> 100,> 100,> 100,> 100,> 100,> 100,> 100,> 100,> 100,> 100,> 100,,> 100
COC(=O)c1ccc2c(c1)CC1(C2)Cc2cc3c(cc2C1=O)CCC3 (stereo not given),> 100,> 100,> 100,> 100,94.2,82.8,> 100,> 100,> 100,> 100,> 100,> 100,> 100,> 100,> 100,> 100,83.6,> 100,,> 100
C=C(C)[C@@H](C(=O)OC)N1C(=O)c2ccccc2C1=O,> 100,> 100,> 100,> 100,> 100,> 100,> 100,> 100,> 100,> 100,> 100,> 100,> 100,> 100,> 100,> 100,> 100,> 100,,> 100
CCSc1nc(N2CCOCC2)c2cn[nH]c2n1,> 100,> 100,> 100,> 100,> 100,> 100,> 100,> 100,> 100,> 100,> 100,> 100,> 100,> 100,> 100,> 100,> 100,> 100,,> 100
CC(C)NC(=O)OCc1c(COC(=O)NC(C)C)c(-c2ccc[n+](COC(=O)CC(C)(C)C)c2)n2c1CCC2,> 100,> 100,> 100,> 100,> 100,> 100,> 100,> 100,> 100,> 100,> 100,> 100,> 100,> 100,> 100,> 100,> 100,> 100,,> 100
CC(=O)c1cccc2c1CC1(C2)Cc2ccc3c(c2C1=O)CCC3 (stereo not given),> 100,> 100,67.4,> 100,> 100,> 100,> 100,> 100,> 100,> 100,> 100,> 100,> 100,> 100,> 100,> 100,> 100,> 100,,> 100
CC(=O)NNc1nc(C)c(C(/C=C/c2cccc([N+](=O)[O-])c2)=N/NC(=S)NN)s1,> 100,> 100,> 100,> 100,> 100,> 100,> 100,> 100,> 100,> 100,> 100,> 100,> 100,> 100,> 100,> 100,> 100,> 100,,> 100

# — PubChem BioAssay (NCI)
